According to patent US20110124634A1, “BIOACTIVE COMPOUNDS FOR TREATMENT OF CANCER AND NEURODEGENERATIVE DISEASES” (PONIARD PHARMACEUTICALS, INC., priority 2008, published 2011):
Like-named read-outs stand apart in the source and are kept apart here.

Columns and labels:
[1] = system: SKBR-3; assay: MTS assay (cytotoxicity), growth inhibition of SKBR-3; format: cell-based; conditions: Homo sapiens, SK-BR-3, 120 h
Description: (§1) Cells were seeded in 96-well plates at 2000 cells/well in a final culture volume of 100 ul for 24 hours before the addition of 25 ul of increasing concentrations of inhibitors that was incubated for 5 days. Viable cell number was determined using the CellTiter 96 AQueous One Solution Cell Proliferation Assay (Promega). Plates were read at 490 nm absorbance 2-4 hours after addition of the MTS reagent using a multiwell plate spectrophotometer. Background was determined by measuring the Abs 490 nm of cell culture medium and MTS in the absence of cells. The background value was subtracted from all values. Absorbance 490 nm values for each inhibitor were plotted against the log 10 inhibitor concentration, and IC50 values were calculated using a nonlinear least-square curve fitting program in Prism 5.

[2] = system: MCF-7; assay: MTS assay (cytotoxicity), growth inhibition of MCF-7; format: cell-based; conditions: Homo sapiens, MCF7, 120 h
Description: as §1

[3] = system: BT474; assay: MTS assay (cytotoxicity), growth inhibition of BT474; format: cell-based; conditions: Homo sapiens, BT-474, 120 h
Description: as §1

[4] = system: HSP90 client protein Her2 in SKBR-3 cells; assay: Her-2 degradation assay (Her-2 ELISA) in SKBr-3 cells; format: cell-based; conditions: Homo sapiens
Description: (§2) Most of the compounds synthesized were evaluated for their ability to induce degradation of the HSP90 client protein Her2 in SKBR-3 cells. Selected compounds were evaluated in a fluorescence polarization (FP) assay for their affinity to HSP90.
SKBr-3 cells grown in McCoy's 5a Medium supplemented with 10% fetal bovine serum (FBS) were plated into 12-well plates at 50% confluency. Increasing concentrations of inhibitors were added 24 hours later (cells are 65-70% confluent) and incubated overnight for 18 hours. The wells were washed with 2 ml of phosphate buffered saline (PBS), and 50 ul of trypsin was added to each well. After trypsinization was complete, 150 ul of FBS was added to each well. Then 200 ul of cells were transferred to 96-well plates and plates were centrifuged at 1200 rpm for 2 minutes using a tabletop centrifuge. The cells were washed once with 250 ul PBS before being lysed with 100 ul of 50 mM Tris (pH 7.4), 0.1% NP-40 lysis buffer. Protein concentrations of clarified lysates were determined using the BCA Assay (Calbiochem) according to the manufacturer's instructions. 2 ug of each lysate was analyzed in the human sp 185 Her-2 ELISA (Bender Medsystems) according to the manufacturer's instructions. ELISA plates were read at 450 nm using a multiwell plate spectrophotometer. Background was determined by measuring the Abs 450 nm of wells with no lysate added. The background value was subtracted from all values. Absorbance 450 nm values for each inhibitor were plotted against the log 10 inhibitor concentration, and IC50 values were calculated using a nonlinear least-square curve fitting program in Prism 5.

[5] = system: HSP90; assay: Fluorescence polarization (FP) assay for affinity to HSP90; format: binding; conditions: means of three independent experiments
Description: as §2

[6] = system: HT29; assay: MTS assay (cytotoxicity), growth inhibition of HT29; format: cell-based; conditions: Homo sapiens, HT-29, 120 h
Description: as §1

[7] = system: hMEpiC; assay: MTS assay (cytotoxicity), growth inhibition of human mammary epithelial cell; format: cell-based; conditions: Table 4, means of three independent experiments
Description: as §1

[8] = Table 4, 5 days, means of three independent experiments, read-out: SKBR-3 IC50 (growth inhibition)
[9] = Table 4, 5 days, means of three independent experiments, read-out: MCF-7 IC50 (growth inhibition)
[10] = Table 4, 5 days, means of three independent experiments, read-out: BT474 IC50 (growth inhibition)
[11] = SK-BR-3, Table 2, 18 hours, means of three independent experiments
[12] = Table 4, 5 days, means of three independent experiments, read-out: HT29 IC50 (growth inhibition)
[13] = SK-BR-3, Table 1, series I, 18 hours, means of three independent experiments
[14] = Table 5, series III, 5 days, read-out: Growth Inhibition (IC50) SKBR-3
[15] = Table 5, series III, 5 days, read-out: Growth Inhibition (IC50) MCF-7
[16] = Table 5, series III, 5 days, read-out: Growth Inhibition (IC50) BT474
[17] = SK-BR-3, Table 5, series III, 18 hours
[18] = Table 5, series III, 5 days, read-out: Growth Inhibition (IC50) HT29

| Compound | IC50 [1, 8] [nM] | IC50 [2, 9] [nM] | IC50 [3, 10] [nM] | IC50 [6, 12] [nM] | IC50 [4, 13] [nM] | IC50 [1, 14] [nM] | IC50 [2, 15] [nM] | IC50 [3, 16] [nM] | IC50 [4, 17] [nM] | IC50 [6, 18] [nM] | also measured |
| --- | --- | --- | --- | --- | --- | --- | --- | --- | --- | --- | --- |
| COc1c(C)cnc(CN2c3nc(N)nc(Cl)c3NC(=O)[C@@H]2C(C)C)c1C [Example I-28] | 430 | 1600 | 760 | 1060 | – | – | – | – | – | – | IC50 [4, 11]: 650 nM; IC50 ([5]; Table 2): 2140 nM |
| COc1c(C)cnc(CN2CC(=O)N(C)c3c(Cl)nc(N)nc32)c1C [Example I-5] | 460 | 2190 | 950 | 1470 | 930 | – | – | – | – | – | IC50 ([5]; Table 1, series I): 960 nM |
| COc1c(C)cnc(CN2CC(=O)N(CC(C)C)c3c(Cl)nc(N)nc32)c1C [Example I-6] | 10 | 70 | 20 | 40 | 40 | – | – | – | – | – | IC50 [7]: 130 nM; IC50 ([5]; Table 1, series I): 50 nM; IC50 ([5]; Table 2): 50 nM |
| Cc1cnc(CN2CC(=O)N(CC(C)C)c3c(Cl)nc(N)nc32)c(C)c1Br [Example I-34] | 60 | 280 | 130 | 140 | – | – | – | – | – | – | IC50 [7]: 180 nM; IC50 ([4]; SK-BR-3, Table 3, 18 hours, means of three independent experiments): 100 nM; IC50 ([5]; Table 3): 60 nM |
| COc1c(C)cnc(CN2c3nc(N)nc(Cl)c3N(C(C)C)C(=O)[C@@H]2C(C)C)c1C [Example I-32] | – | – | – | – | – | – | – | – | – | – | IC50 [4, 11]: 60 nM; IC50 ([5]; Table 2): 80 nM |
| COc1c(C)cnc(CN2CC(=O)N(C(C)C)c3c(Cl)nc(N)nc32)c1C [Example I-4] | 20 | 50 | 30 | 60 | 50 | – | – | – | – | – | IC50 [7]: 320 nM; IC50 ([5]; Table 1, series I): 70 nM |
| COc1c(C)cnc(CN2c3nc(N)nc(Cl)c3NC(=O)[C@H]2C)c1C [Example I-26] | 220 | 790 | 410 | 470 | – | – | – | – | – | – | IC50 [4, 11]: 350 nM; IC50 ([5]; Table 2): 400 nM |
| COc1c(C)cnc(CN2C(=O)/C(=C\c3[nH]cnc3C)c3c(Cl)nc(N)nc32)c1C [III-4, 2-Amino-4-chloro-7-(4-methoxy-3,5-dimethyl-pyridin-2-ylmethyl)-5-[1-(5-methyl-3H-imidazol-4-yl)-meth-(Z)-ylidene]-5,7-dihydro-pyrrolo[2,3-d]pyrimidin-6-one] | – | – | – | – | – | 160 | 530 | 190 | 340 | 120 | – |
| COc1c(C)cnc(CN2C(=O)/C(=C\c3cc(C(=O)NCCO)c[nH]3)c3c(Cl)nc(N)nc32)c1C [III-18, (Z)-5-((2-Amino-4-chloro-7-((4-methoxy-3,5-dimethylpyridin-2-yl)methyl)-6-oxo-6,7-dihydro-5H-pyrrolo[2,3-d]pyrimidin-5-ylidene)methyl)-N-(2-hydroxyethyl)-1H-pyrrole-3-carboxamide] | – | – | – | – | – | 30 | > 500 | 30 | 360 | 110 | – |
| COc1c(C)cnc(CN2C(=O)/C(=C\c3[nH]c(C)cc3C)c3c(Cl)nc(N)nc32)c1C [III-2, 2-Amino-4-chloro-5-[1-(3,5-dimethyl-1H-pyrrol-2-yl)-meth-(Z)-ylidene]-7-(4-methoxy-3,5-dimethyl-pyridin-2-ylmethyl)-5,7-dihydro-pyrrolo[2,3-d]pyrimidin-6-one] | – | – | – | – | – | 960 | 3650 | 1020 | 1670 | 1210 | – |
| COc1c(C)cnc(CN2C(=O)/C(=C\c3ncc[nH]3)c3c(Cl)nc(N)nc32)c1C [III-3, 2-Amino-4-chloro-5-[1-(1H-imidazol-2-yl)-meth-(Z)-ylidene]-7-(4-methoxy-3,5-dimethyl-pyridin-2-ylmethyl)-5,7-dihydro-pyrrolo[2,3-d]pyrimidin-6-one] | – | – | – | – | – | 40 | 100 | 60 | 90 | 70 | – |
| COc1c(C)cnc(CN2c3nc(N)nc(Cl)c3NC(=O)[C@@H]2CCO)c1C [Example I-25] | – | – | – | – | – | – | – | – | – | – | IC50 [4, 11]: 280 nM; IC50 ([5]; Table 2): 640 nM |
| CCN(CC)CCNC(=O)c1c[nH]c(/C=C2\C(=O)N(Cc3ncc(C)c(OC)c3C)c3nc(N)nc(Cl)c32)c1 [III-19, (Z)-5-((2-Amino-4-chloro-7-((4-methoxy-3,5-dimethylpyridin-2-yl)methyl)-6-oxo-6,7-dihydro-5H-pyrrolo[2,3-d]pyrimidin-5-ylidene)methyl)-N-(2-(diethylamino)ethyl)-1H-pyrrole-3-carboxamide] | – | – | – | – | – | 1 | 70 | 0.7 | 10 | 10 | – |
| COc1c(C)cnc(CN2CC(=O)N(CCN3CCCC3)c3c(Cl)nc(N)nc32)c1C [Example I-7] | 300 | 1320 | 520 | 1080 | 510 | – | – | – | – | – | – |
| COc1c(C)cnc(CN2CC(=O)Nc3c(Cl)nc(N)nc32)c1C [Example I-2] | 390 | 1490 | 650 | 1180 | 570 | – | – | – | – | – | IC50 ([5]; Table 1, series I): 880 nM |
| COc1c(C)cnc(CN2C(=O)/C(=C\c3cc(C(=O)NCCCN4CCOCC4)c[nH]3)c3c(Cl)nc(N)nc32)c1C [III-34, (Z)-5-((2-Amino-4-chloro-7-((4-methoxy-3,5-dimethylpyridin-2-yl)methyl)-6-oxo-6,7-dihydro-5H-pyrrolo[2,3-d]pyrimidin-5-ylidene)methyl)-N-(3-morpholinopropyl)-1H-pyrrole-3-carboxamide] | – | – | – | – | – | 10 | 170 | 40 | 20 | 20 | – |
| COc1c(C)cnc(CN2CC(=O)N(CCCC(C)C)c3c(Cl)nc(N)nc32)c1C [Example I-3] | 970 | 3110 | 1650 | 2260 | 1910 | – | – | – | – | – | IC50 ([5]; Table 1, series I): 900 nM |
| COc1c(C)cnc(CN2C(=O)/C(=C\c3cc(Br)c[nH]3)c3c(Cl)nc(N)nc32)c1C [III-11, (Z)-2-Amino-5-((4-bromo-1H-pyrrol-2-yl)methylene)-4-chloro-7-((4-methoxy-3,5-dimethylpyridin-2-yl)methyl)-5H-pyrrolo[2,3-d]pyrimidin-6(7H)-one] | – | – | – | – | – | 140 | 1380 | 430 | 190 | 380 | – |
| COc1c(C)cnc(CN2C(=O)/C(=C\c3cc(C(=O)NCCN4CCC(O)CC4)c[nH]3)c3c(Cl)nc(N)nc32)c1C [III-33, (Z)-5-((2-Amino-4-chloro-7-((4-methoxy-3,5-dimethylpyridin-2-yl)methyl)-6-oxo-6,7-dihydro-5H-pyrrolo[2,3-d]pyrimidin-5-ylidene)methyl)-N-(2-(4-hydroxypiperidin-1-yl)ethyl)-1H-pyrrole-3-carboxamide] | – | – | – | – | – | 0.6 | 110 | 3 | 40 | 20 | – |
